Laboratory results from US5470877A, “Uses of perillic acid methyl ester” (Wisconsin Alumni Research Foundation, priority 1994, dated 1995).

Experiments:
[1] = in vivo
Description: Subjects: The subjects were five females and two males, median age of 32 years (range 23-55) and without illness or laboratory abnormalities.
The custard consisted of dry unflavored custard mix, cold water, cold whole milk, and orange oil. The components were blended at room temperature and then refrigerated for at least 30 minutes prior to ingestion by the subjects. Subjects ingested the orange oil-containing mixture over 2-10 minutes. […] The chemistry panel consisted of: BUN, creatinine, calcium, magnesium, phosphorous, uric acid, total cholesterol, total protein, albumin, total bilirubin, y-glutamyl transpeptidase, alkaline phosphatase, aspartate aminotransferase, and lactate dehydrogenase. Subjects were monitored for toxicity for one week.

HT29 cells = experiment: Inhibition of HT29 colon adenocarcinoma cell growth/proliferation; format: cell-based, human; details: 1 = greatest inhibition, 5 = least inhibition
Description: We examined the effect of several of the terpenes on certain types of cell growth. […] Additionally, growth of HT29 (human colon adenocarcinoma) cells was inhibited by 80% by 1 mM perillyl alcohol.

21-26 kDa proteins [2] = experiment: Protein isoprenylation inhibition in NIH3T3 cells (SDS-PAGE fluorography); format: cell-based, mouse; details: for isoprenylation of the 21-26-kDa bands, % of the control: NIH3T3, gel slicing and scintillation counting
Description: "Isoprenylation" is the addition of a multiple of the 5 carbon isoprene unit to a protein. Our experiments in isoprenylation are reported at Crowell, et al. 1991, J. Biol. Chem. 266:17679-17685. To test whether a specific monoterpene affects isoprenylation of proteins in cells, […] were incubated with a radioactive isoprene precursor and 0-5 mM of the test monoterpene and then subjected to SDS-PAGE. Because they carried a radioactive label, isoprenylated proteins were visualized by fluorography. As a control, cells were incubated without the monoterpene.
Cells were harvested after trypsin treatment, washed twice with phosphate-buffered saline, suspended in electrophoresis sample buffer (Laemmli, U.K., 1970, Nature 227:680-685), and either analyzed immediately or stored at -20° C. Whole cell extracts were analyzed by SDS-PAGE on 16-cm×18-cm×0.75-mm gels by the method of Laemmli (supra). The acrylamide concentrations were 5% for the stacking gel and 12% for the separating gel. Gels were stained with Coomassie Brilliant Blue, equilibrated for 20 min in Amplify (Amersham Corp.) fluorographic reagent, dried under vacuum at 65° C., and exposed to preflashed Kodak X-Omat AR film as described by Laskey and Mills (1975, Eur. J. Biochem, 56:335-341). Some fluorograms were analyzed further by densitometry. Where indicated, gels were sliced, dissolved at 50° C. for 3 hours in 0.5 ml of water+0.5 ml of Solvable (Amersham), and then analyzed by scintillation spectrometry in 10 ml of Atom light (Amersham) mixture. Protein content was measured by the method of Lowry, et al. (1951, J. Biol. Chem. 193:265-275).
FIG. 1 depicts the structures of certain monoterpenes.
The degree of isoprenylation was evaluated by the amount of labeled protein present in the 21-26 kDa range, as evidenced by fluorography.

21-26 kDa proteins [3] = experiment: Protein isoprenylation inhibition in M600B human mammary epithelial cells
Description: To test whether a specific monoterpene affects isoprenylation of proteins in cells, cell extracts were incubated with a radioactive isoprene precursor and 0-5 mM of the test monoterpene and then subjected to SDS-PAGE. Because they carried a radioactive label, isoprenylated proteins were visualized by fluorography. As a control, cells were incubated without the monoterpene.
For both isoprenylation and cell growth assays, the monoterpenes were mixed with prewarmed (37° C.) medium containing 10% calf serum, and then the monoterpene-containing medium was added to cells. The relative effects of various monoterpenes on protein isoprenylation were compared by comparison of the relative intensity of bands on fluorograms from [^14 C]-mevalonate-labelled cells treated with each monoterpene.
Samples from each cell line were then analyzed on the same gel.

[4] = tested on: DMBA-induced rat mammary carcinomas; experiment: Regression of DMBA-induced mammary carcinomas, pair-feeding study; format: in vivo, Wistar-Furth rat
Description: We used Wistar-Furth female rats for in vivo studies. Wistar-Furth female rats were obtained from Harlan Sprague-Dawley, Inc., (Madison, Wis.). All rats, arriving at 43-48 days of age, were housed at four rats per cage in wire-bottom metal cages and all were maintained with a light/dark cycle of 12 hours. Rats were provided Teklad Lab blox chow and acidified water ad libitum.
After one week of acclimation, the carcinogen DMBA was administered to the rats, which were 50-55 days old at this point. The DMBA was dissolved in a stock solution of 20 mg DMBA/ml sesame oil, heated and allowed to cool to room temperature before administration. DMBA (Eastman Kodak, Rochester, N.Y.) was given as a single gastric intubation of 50 mg DMBA/kg rat body weight.
In the pair-feeding study, a group of 70 mammals was treated with DMBA. Beginning four weeks post carcinogen administration, mammals were weighed and palpated weekly. Upon palpation of the first mammary carcinoma (diameter≥3 mm), mammals were randomly assigned to control or 2.5% (w/w) perillyl alcohol diet and pair-fed.
Perillyl alcohol (>96% pure by GC analysis, Aldrich, Milwaukee, Wis.) and Teklad 4% mouse/rat diet meal were thoroughly mixed and stored at -20° C. Fresh diets were made every 7-10 days. All mammals were provided fresh diet daily to minimize evaporation of the monoterpenes. For pair-feeding, the quantity of diet consumed by the monoterpene-fed mammals was measured every 24 hours and the assigned partner was pair-fed accordingly.
In the pair-feeding study, all palpable mammary carcinomas were classified as either "primary" tumors (i.e, the first tumor(s) palpated with a minimum diameter of 3 mm) or "secondary" tumors (i.e. a palpable tumor arising after initial diet assignment). At diet assignment, some mammals had more than one primary tumor. All carcinogen-exposed mammals not bearing a first palpable tumor by week 15 post-carcinogen were removed from the experiment. Complete regression of a tumor was defined as non-palpability for a minimum of three consecutive weeks. All mammals in the pair-feeding study were followed for a minimum of 10 weeks post-diet assignment for tumor growth or regression at primary tumor sites and all other mammary glands. The rats were necropsied if moribund. Complete necropsies were performed on all rats at the termination of the study. Greater than 95% of tumors remaining at the autopsy date were diagnosed as mammary carcinomas based on gross and histopathological criteria.

[5] = in vivo; cited from earlier work
[6] = Plasma metabolite identification and quantitation in rats; format: in vivo, Wistar-Furth rat; details: rat, in vivo
Description: Control animals received oil alone. At the chosen time points, rats were anesthetized with ether and blood was collected into heparinized tubes (Heparin (Sigma, Grade II), at 20 mg/ml in 0.9% saline). Plasma was removed following centrifugation and stored at -20° C.
For quantitation of chronic plasma metabolite levels of perillyl alcohol, female WF rats were housed individually and fed fresh diet daily. The afternoon before blood collection, all rats were given approximately 20 grams of the appropriate diet and allowed to eat ad. libitum for 18 hours. Food consumption data was determined the next morning and the rats were bled within 2 hours following food removal.
Briefly, 5 μl of a 10 mM solution of perillaldehyde was added to 50 μl plasma as an internal standard for quantitation. The plasma was mixed with an equal volume of n-butanol:acetonitrile (1:1, v/v), after which another volume of saturated potassium phosphate was added. After vortexing, the samples were centrifuged and the organic layer removed from the top.
Plasma extracts were analyzed using a Hewlett-Packard 5891 gas chromatograph equipped with a flame-ionization detector or a Hewlett-Packard 5890 chromatograph equipped with a 5971A mass-selective detector, both with 30 m Supelco SPB-5 columns. The temperature program was 90° C. for 4 minutes, increasing by 10° C./minute, followed by 15 minutes at 275° C. The split ratio was 1:10 and the linear velocity was 1.1 ml/minute. Standard curves were generated by adding 5 μl rat plasma. Standards were then extracted and analyzed by capillary gas chromatography. The ratio of the terpene peak area/perillaldehyde peak area versus the concentration of terpene in the sample was plotted.

[7] = rat, in vivo; cited from earlier work
[8] = Chemistry panel and toxicity monitoring in human subjects; details: 100 mg/kg d-limonene
Description: The custard consisted of dry unflavored custard mix, cold water, cold whole milk, and orange oil. The components were blended at room temperature and then refrigerated for at least 30 minutes prior to ingestion by the subjects. Subjects ingested the orange oil-containing mixture over 2-10 minutes. […] One subject had additional blood draws for metabolite analysis at 1, 2, and 8 h post-ingestion. The chemistry panel consisted of: BUN, creatinine, calcium, magnesium, phosphorous, uric acid, total cholesterol, total protein, albumin, total bilirubin, y-glutamyl transpeptidase, alkaline phosphatase, aspartate aminotransferase, and lactate dehydrogenase. Subjects were monitored for toxicity for one week.

[9] = 10% limonene diet or 2.5% POH diet

## C=C(C)[C@H]1CC=C(C)CC1 [limonene]
[1]; human
  time of highest metabolite concentrations: 4 h
[1]
  identity of abundant human metabolite H2: limonene-1,2-diol
  metabolite concentrations at 24 h (8 h in one subject): lower than those at the 4 h time point
HT29 cells
  Rank order, inhibition of HT-29 tumor cell proliferation: 5
21-26 kDa proteins [2]; 0.5 mM limonene
  isoprenylation of the 21-26-kDa bands, % of the control: ~ 50 % of the control
21-26 kDa proteins [2]; 0.5 mM or 5 mM limonene
  intensity of the 66-, 46-, and 17-kDa bands: not different from that of the control
21-26 kDa proteins [2]; 5 mM limonene
  isoprenylation of the 21-26-kDa bands, % of the control: ~ 25 % of the control
21-26 kDa proteins [3]; 5 mM limonene
  intensity of the 21-26 kDa bands: marked decrease
21-26 kDa proteins [3]; dose responsive
  concentration required for significant inhibition of protein isoprenylation: at least 1 mM
[4]; [9]
  Primary carcinoma complete regression (tumors regressed / tumors): 19/28
  Primary carcinoma regression (%): 68%
  Secondary carcinoma regression (%): 63%
  Secondary carcinoma regression (tumors regressed / tumors): 17/27
  Secondary carcinomas/rat: 1.08
[4]; after initial diet assignment
  development of secondary carcinomas: number of secondary carcinomas was higher in the limonene-fed mammals
[4]; primary carcinoma, footnote: Kaplan-Meier estimate of time when 25% regressed
  Time to Regress (wks): 3.25 wks
[5]
  side-effects: not without some side-effects
[6]
  mM DHPAME: trace
  metabolism at 4 hours: equal amounts of perillic and dihydroperillic acid
  parent in plasma at 24 hours: no limonene was detectable in the plasma
  time parent found in plasma: up to 4 hours
[6]; 30240 min
  Total: 0.19 mM
  mM DHPA: 0.06 ± 0.01 mM
  mM DHPAME: 0.01 ± 0.00 mM
  mM LIM/POH: 0 mM
  mM PA: 0.10 ± 0.02 mM
  mM PAME: 0.02 ± 0.01 mM
[6]; 50400 min
  Total: 0.28 mM
  mM DHPA: 0.09 ± 0.02 mM
  mM DHPAME: 0.01 ± 0.00 mM
  mM LIM/POH: 0 mM
  mM PA: 0.14 ± 0.03 mM
  mM PAME: 0.04 ± 0.01 mM
[6]; 100800 min
  Total: 0.27 mM
  mM DHPA: 0.12 ± 0.01 mM
  mM LIM/POH: 0 mM
  mM PA: 0.13 ± 0.01 mM
  mM PAME: 0.02 ± 0.00 mM
[6]; po, 1000 mg/kg, 4 h
  concentration: 90 ± 20 µM
[7]
  time of highest concentrations of limonene-derived material: 2 to 12 h
[8]
  gradeable toxicity: No gradeable toxicity was encountered
